Test results as given in patent US20230330234A1, “HYPERBRANCHED POLYESTER POLYOL DERIVATIVE AS DRUG SOLUBILIZER” (FREIE UNIVERSITÄT BERLIN, priority 2020, published 2023).
Values after ≈ are worked out from the molar mass of the structure shown.

Key:
[1] = Solubility in aqueous solution of the hyperbranched polyester polyol derivative;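 further: drug added to a previously prepared clear aqueous solution of the solubilizing polymer, stirred 18 h at room temperature in the dark, then centrifuged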
physchem [2] = conditions: aqueous with cosolvent or surfactant or cyclodextrin, thermodynamic from solid
physchem [3] = conditions: water
[4] = Carrying potential of h(PG-co-PCL)60S0.95 by UV-VIS; assay type: physicochemical; conditions: calculated by UV
Protocol: For drugs presenting an absorption band at wavelength higher than 400 nm, UV-VIS analysis is chosen as quantification method. First, a calibration curve of the free drug in the suitable solvent mixture is recorded. Suitable combinations of solvent include mixtures of water and methanol, as well as of water and ethanol, in both cases in a ratio falling in a range of from 40 to 60% to 20 to 80%.
The calibration curve is prepared with at least 5 points, in a concentration range depending on the drug to be quantified. Linear regression is applied to generate the equation of the straight-line necessary to calculate the drug content.
The formulation is afterwards dissolved in the same medium and an UV-VIS spectrum is recorded. It is possible to use a straight-line equation to get the concentration of drug in solution. Knowing the total volume of the formulation, the content of drug, in mg, can be calculated.
(§1) The carrying potential (CP) of the polymer (solubilizing agent) is obtained as the ratio of the loaded and solubilized drug to the amount of solubilizing agent (Eq. 1).
(§2) The following tables (Table 5, Table 6 and Table 7) show the results of the performed analyses. In this context, h(PG-co-PCL)60S0.95 was used as hyperbranched polyester polyol derivative. Its non-sulfated backbone has a molecular weight of 60 kDa. The polyester polyol derivative has a sulfation degree of 95%.

HeLa cells = assay: Cell viability experiment (toxicity) in HeLa cells; assay type: cell-based; conditions: Homo sapiens, free drug solubilized in DMSO vs drug solubilized in sulfated polyester polyol
KB-V1 cells = assay: Cell viability experiment (toxicity) in KB-V1 cells; assay type: cell-based; conditions: Homo sapiens, free drug solubilized in DMSO vs drug solubilized in sulfated polyester polyol
[5] = Carrying potential of h(PG-co-PCL)60S0.95 by elemental analysis; assay type: physicochemical; conditions: calculated by elemental analysis
From the text: as §1
For drugs presenting an absorption band at wavelength lower than 400 nm, the UV-VIS approach is not suitable, due to drug signals overlapping with signals of the solubilizing agent. Therefore, elemental analysis is chosen as alternative approach. The drugs chosen for the solubilization and entrapment contain nitrogen atoms, which are not present in the polymer structure. Via the quantification of the nitrogen content in the sample, it is possible to determine the amount of drug in it. For the loading quantification, the same equation is used as in the previous case.
as §2

[6] = Size and Z-potential investigation by DLS in PB; assay type: physicochemical; conditions: h(PG-co-PCL)60S0.95 with solubilized drug
From the text: The following tables (Table 5, Table 6 and Table 7) show the results of the performed analyses. In this context, h(PG-co-PCL)60S0.95 was used as hyperbranched polyester polyol derivative. Its non-sulfated backbone has a molecular weight of 60 kDa.

## CC(C)(C)C[C@@H]1N[C@@H](C(=O)N[C@H]2CC[C@H](O)CC2)[C@H](c2cccc(Cl)c2F)[C@]12C(=O)Nc1cc(Cl)ccc12 [MI-773]
Solubility in water
  Solubility in water: 1 µg/mL (≈ 1.78 µM)
[1]
  Solubility in aqueous polymer solution: >300 µg/mL

## Cc1c(-c2c(-c3ccc(F)o3)sc3ncnc(O[C@H](Cc4ccccc4OCc4ccnn4CC(F)(F)F)C(=O)O)c23)ccc(OCCN2CCN(C)CC2)c1Cl [S63845]
Physchem [2]
  solubility: > 300 µg/mL
Physchem [3]
  solubility: 1 µg/mL (≈ 1.21 µM)

## CNCc1ccc(-c2cc(-c3nc(-c4ccc(S(=O)(=O)C(C)C)cc4)cnc3N)on2)cc1 [Berzosertib]
[4]
  Carrying potential: 10% wt %

## CN[C@@H]1C[C@H]2O[C@@](C)([C@@H]1OC)n1c3ccccc3c3c4c(c5c6ccccc6n2c5c31)C(=O)NC4 [Staurosporin]
Solubility in water
  Solubility in water: 40 µg/mL (≈ 85.7 µM)
[1]
  Solubility in aqueous polymer solution: >300 µg/mL

## CCN(CC)CCNC(=O)c1c(C)[nH]c(/C=C2\C(=O)Nc3ccc(F)cc32)c1C [Sunitinib]
Physchem [2]
  solubility at 18 h: > 300 µg/mL
Solubility in water; Solubility in water
  solubility: 30 µg/mL (≈ 75.3 µM)
HeLa cells
  IC50: 3.52 µg/mL (≈ 8.84 µM)
[4]
  Carrying potential: 11% wt %
KB-V1 cells
  IC50: 1.95 µg/mL (≈ 4.9 µM)
[5]
  Carrying potential: 8.7%^ wt %

## [2H]c1nc(C)nc([2H])c1-c1cc(NC[C@@H](C)c2cccc3c(C(=O)NC)ccnc23)ncn1 [M9831/VX-984]
[4]
  Carrying potential: 10% wt %

## CC(=O)Nc1cccc(-n2c(=O)n(C3CC3)c(=O)c3c(Nc4ccc(I)cc4F)n(C)c(=O)c(C)c32)c1 [Trametinib]
Physchem [2]
  solubility at 18 h: > 300 µg/mL
Physchem [3]
  solubility: 30 µg/mL (≈ 48.7 µM)
[6]; DLS in PB, in nm (unit assumed)
  Size (volume): 14 ± 2
[6]; in PB, in mV (unit assumed)
  Z-potential: −18.9
[5]
  Carrying potential: 2% wt %
